Values joined by “and” are separate entries in the source; they are usually repeats but may differ in a detail not shown here. Identical values can stand only once. Like-named read-outs stand apart in the source and are kept apart here.
Tests used:
serum sphingolipids = test: long-chain bases liberated from total serum lipids by acid hydrolysis, ponies fed fumonisin; type: in vivo, pony
Description: (§1) Feeding protocols—Clinically normal ponies of varying age and sex were conditioned on the control diet for 21 days prior to the trial. Horse 341 was a 6 year old gelding (173-193 Kg), 299 was a 12 year old mare (205-215 Kg), 164 was a 12 year old mare (206-290 Kg) and 166 was a 16 year old mare (143-164 Kg). During the conditioning period and throughout the trial, all ponies received alfalfa hay by free choice. The test groups were fed varying levels of fumonisin (15 to 44 ppm) for varying lengths of time.
Analysis of serum long-chain bases—Blood was drawn approximately twice a week, centrifuged to obtain serum, and aliquots were frozen for analyses of free sphingosine and sphinganine by HPLC as is known in the art as described in (28). To quantitate total sphingolipids in some samples, the extracts were acid hydrolyzed before preparing the samples for HPLC.

[1] = reference 12; cited from earlier work
[2] = Description: as §1
Clinical chemistry, evaluation, and tissue collection—The following clinical chemistry parameters were also analyzed with blood: total bilirubin, direct bilirubin, urea nitrogen, alkaline phosphatase, AST/SGOT, creatine kinase, gamma glutamyl transaminase, and bile acids. The animals were observed intermittently through ut each day and behavior changes were noted. Animals that were euthanized or died underwent a routine necropsy, and brain, liver, and kidney were prepared for microscopic study.

ceramide synthase = test: in vitro assay of ceramide synthase, rat liver microsomes; type: biochemical; conditions: inhibition may be biphasic (FIG. 5), read-out: apparent IC50 for inhibition of ceramide synthase in vitro
Description: In vitro assays of serine palmitoyltransferase and ceramide synthase. A microsomal fraction was isolated from rat liver and assayed for serine palmitoyltransferase, as is known in the art as described in (24,29), and ceramide synthase, as is known in the art as described in (30), in the presence of varying concentrations of fumonisin B1. […] The reaction was initiated by adding palmitoyl-CoA and, after incubation at 37° C. for 15 min, the products were extracted, resolved by TLC, and quantitated as described above. Background counts were subtracted using data from identical assays that omitted palmitoyl-CoA.

[3] = system: de novo sphingolipid biosynthesis; test: de novo sphingosine biosynthesis from [14C]serine in hepatocytes
Description: Hepatocyte culture—Hepatocytes were prepared by a collagenase perfusion method, as known in the art as described in (22), from male Sprague-Dawley rats (125 to 200 g) fed a chow diet (Ralston Purina, St. Louis, Mo.) ad libitum. The hepatocytes were isolated using carefully aseptic procedures and plated in 60 mm tissue culture dishes coated with collagen for short term (<24 h) or with Matrigel for longer term (3 to 4 d) experiments. After plating for 4 h, the medium was changed to 2 ml of DMEM (with 3.7 g/L NaHCO3) containing 10 μg/ml f insulin, 6.1 g/L of penicillin, 10 g/L of streptomycin sulfate, and varying concentrations of fumonisins (added from a 1 mM solution in Delbecco's phosphate buffered saline). The cells were maintained in a tissue culture incubator at 37° C. and an atmosphere of 5% CO2; the medium was changed every 24 h.
Lipid analyses—The de novo biosynthesis of sphingosine was measured, as known in the art as described in (23,24). Briefly, cells that had been exposed to fumonisins for 0 to 4 d were changed to new medium containing 10 μCi of [^14C]serine (25 mCi/mmol) in 2 ml of serine-free DMEM (Gibco) in the presence or absence of fumonisin. After incubation for 2 or 16 h, they were scraped from the dishes, 25 μg of carrier sphingosine and sphinganine were added, and the lipids were extracted and acid hydrolyzed to liberate the free long-chain bases using conditions that give optimal hydrolysis with minimal decomposition of the labile long-chain bases, as known in the art as described in (23-25). The sphinganine and sphingosine were separated by thin-layer chromatography on silica gel H (Brinkman) plates developed with CHCl,:methanol:2 N NH4OH (40:10:1, v/v/v) and the radiolabelling profile (shown in FIG. 2) was determined by radiometric scanning of the plates with a Bioscan System 200 Imaging Scanner. […] The appropriate regions of the chromatoplate were scraped, placed in scintillation vials, and 0.2 ml of water and 4 ml of a detergent based scintillation cocktail were added. After several hours, the samples were counted with the appropriate corrections for quenching.

[4] = reference 14; cited from earlier work
[5] = system: serine palmitoyltransferase; test: serine palmitoyltransferase in disrupted cells after treatment of hepatocytes; type: cell-based, rat; conditions: hepatocytes treated with 2.5 μM
[6] = Pony 208, fumonisin feed (level not given), day 2
[7] = Pony 208, fumonisin feed (level not given), day 6
[8] = Pony 208, fumonisin feed (level not given), day 10
[9] = Pony 208, fumonisin feed (level not given), day 13

CCCC[C@@H](C)[C@@H](OC(=O)C[C@@H](CC(=O)O)C(=O)O)[C@H](C[C@@H](C)C[C@H](O)CCCC[C@@H](O)C[C@H](O)[C@H](C)N)OC(=O)C[C@@H](CC(=O)O)C(=O)O [fumonisin B1]
Sphinganine Total (acid hydrolysis of serum lipids) (serum sphingolipids; Pony 164, feed 44 ppm, day 2): 169 ± 30 pmol/mL
Sphinganine Total (−free) (serum sphingolipids; Pony 164, feed 44 ppm, day 2): 99 pmol/mL
Sphingosine Total (acid hydrolysis of serum lipids) (serum sphingolipids; Pony 164, feed 44 ppm, day 2): 621 ± 99 pmol/mL
Sphingosine Total (−free) (serum sphingolipids; Pony 164, feed 44 ppm, day 2): 504 pmol/mL
Sphinganine Total (acid hydrolysis of serum lipids) (serum sphingolipids; Pony 164, feed 44 ppm, day 7): 156 pmol/mL
Sphinganine Total (−free) (serum sphingolipids; Pony 164, feed 44 ppm, day 7): 0 pmol/mL
Sphingosine Total (acid hydrolysis of serum lipids) (serum sphingolipids; Pony 164, feed 44 ppm, day 7): 254 ± 32 pmol/mL
Sphingosine Total (−free) (serum sphingolipids; Pony 164, feed 44 ppm, day 7): 102 pmol/mL
Sphinganine Total (acid hydrolysis of serum lipids) (serum sphingolipids; Pony 164, feed 44 ppm, day 10): 786 ± 234 pmol/mL
Sphinganine Total (−free) (serum sphingolipids; Pony 164, feed 44 ppm, day 10): 503 pmol/mL
Sphingosine Total (acid hydrolysis of serum lipids) (serum sphingolipids; Pony 164, feed 44 ppm, day 10): 2960 ± 585 pmol/mL
Sphingosine Total (−free) (serum sphingolipids; Pony 164, feed 44 ppm, day 10): 2740 pmol/mL
Sphinganine Total (acid hydrolysis of serum lipids) (serum sphingolipids; Pony 166, feed 44 ppm, day 2): 131 ± 40 pmol/mL
Sphinganine Total (−free) (serum sphingolipids; Pony 166, feed 44 ppm, day 2): 94 pmol/mL
Sphingosine Total (acid hydrolysis of serum lipids) (serum sphingolipids; Pony 166, feed 44 ppm, day 2): 1020 ± 313 pmol/mL
Sphingosine Total (−free) (serum sphingolipids; Pony 166, feed 44 ppm, day 2): 974 pmol/mL
Sphinganine Total (acid hydrolysis of serum lipids) (serum sphingolipids; Pony 166, feed 44 ppm, day 7): 206 ± 18 pmol/mL
Sphinganine Total (−free) (serum sphingolipids; Pony 166, feed 44 ppm, day 7): 144 pmol/mL
Sphingosine Total (acid hydrolysis of serum lipids) (serum sphingolipids; Pony 166, feed 44 ppm, day 7): 950 ± 154 pmol/mL
Sphingosine Total (−free) (serum sphingolipids; Pony 166, feed 44 ppm, day 7): 985 pmol/mL
Sphinganine Total (acid hydrolysis of serum lipids) (serum sphingolipids; Pony 166, feed 44 ppm, day 10): 212 ± 28 pmol/mL
Sphinganine Total (−free) (serum sphingolipids; Pony 166, feed 44 ppm, day 10): 34 pmol/mL
Sphingosine Total (acid hydrolysis of serum lipids) (serum sphingolipids; Pony 166, feed 44 ppm, day 10): 634 ± 192 pmol/mL
Sphingosine Total (−free) (serum sphingolipids; Pony 166, feed 44 ppm, day 10): 540 pmol/mL
Sphinganine Total (acid hydrolysis of serum lipids) (serum sphingolipids; Pony 166, feed 44 ppm, day 13): 823 ± 54 pmol/mL
Sphinganine Total (−free) (serum sphingolipids; Pony 166, feed 44 ppm, day 13): 650 pmol/mL
Sphingosine Total (acid hydrolysis of serum lipids) (serum sphingolipids; Pony 166, feed 44 ppm, day 13): 1740 ± 150 pmol/mL
Sphingosine Total (−free) (serum sphingolipids; Pony 166, feed 44 ppm, day 13): 1640 pmol/mL
Sphinganine Total (acid hydrolysis of serum lipids) (serum sphingolipids; [6]): 387 ± 26 pmol/mL
Sphinganine Total (−free) (serum sphingolipids; [6]): 107 pmol/mL
Sphingosine Total (acid hydrolysis of serum lipids) (serum sphingolipids; [6]): 3490 ± 358 pmol/mL
Sphingosine Total (−free) (serum sphingolipids; [6]): 3190 pmol/mL
Sphinganine Total (acid hydrolysis of serum lipids) (serum sphingolipids; [7]): 718 ± 75 pmol/mL
Sphinganine Total (−free) (serum sphingolipids; [7]): 60 pmol/mL
Sphingosine Total (acid hydrolysis of serum lipids) (serum sphingolipids; [7]): 2390 ± 388 pmol/mL
Sphingosine Total (−free) (serum sphingolipids; [7]): 2030 pmol/mL
Sphinganine Total (acid hydrolysis of serum lipids) (serum sphingolipids; [8]): 2040 ± 70 pmol/mL
Sphinganine Total (−free) (serum sphingolipids; [8]): 200 pmol/mL
Sphingosine Total (acid hydrolysis of serum lipids) (serum sphingolipids; [8]): 4450 ± 10 pmol/mL
Sphingosine Total (−free) (serum sphingolipids; [8]): 3460 pmol/mL
Sphinganine Total (acid hydrolysis of serum lipids) (serum sphingolipids; [9]): 9990 ± 379 pmol/mL
Sphinganine Total (−free) (serum sphingolipids; [9]): 9604 pmol/mL
Sphingosine Total (acid hydrolysis of serum lipids) (serum sphingolipids; [9]): 15970 ± 1576 pmol/mL
Sphingosine Total (−free) (serum sphingolipids; [9]): 15040 pmol/mL
disease caused [1]: equine leucoencephalomalacia
AST/SGDT [2, 6]: 344 units
AST/SGDT [2, 7]: 2130 units
AST/SGDT [2, 8]: 1240 units
AST/SGDT [2, 9]: 1010 units
AST/SGDT ([2]; Pony #164, feed 44 ppm, day 2): 235 Units
AST/SGDT ([2]; Pony #164, feed 44 ppm, day 7): 357 Units
AST/SGDT ([2]; Pony #164, feed 44 ppm, day 10): 4000 Units
clinical signs ([2]; Pony #164, feed 44 ppm, day 10): ^1Pony was described as nervous and off feed from day 5; by day 9 was blind and down, and on day 10 had full clinical signs of ELEM and died that evening.
clinical signs ([2]; Pony #166, feed 44 ppm, after being put back on full feed): ^2Pony was described as lethargic from day 5; off feed from day 8; later put back on full feed and exhibited CNS signs; was euthanized on day 45.
AST/SGDT ([2]; Pony #166, feed 44 ppm, day 2): 199 Units
AST/SGDT ([2]; Pony #166, feed 44 ppm, day 7): 215 Units
AST/SGDT ([2]; Pony #166, feed 44 ppm, day 10): 1470 Units
AST/SGDT ([2]; Pony #166, feed 44 ppm, day 13): 2080 Units
clinical outcome ([2]; ponies 164 and 166, feed 44 ppm): resulted in ELEM
time of death ([2]; pony 164, feed 44 ppm): 10 days
elevation in AST/SGOT ([2]; pony 166, 44 ppm, day 10): 7 fold
day of euthanasia ([2]; pony 166, feed 44 ppm): 45 days
clinical outcome ([2]; pony 341, 15 then 22 ppm, day 235): died with the symptoms of equine leucoencephalomalacia
serum AST/SGOT activities ([2]; pony 341, 15 then 22 ppm, until between day 224 and 231): essentially unaffected
IC50 (ceramide synthase): ~100 nM
inhibition of [14C]sphingosine formation by hepatocytes ([3]; 1 μM): almost complete inhibition
de novo sphingolipid biosynthesis ([3]; 10 μM): completely blocked
amount of radiolabel in [14C]sphinganine ([3]; hepatocytes treated (FIG. 4A)): increased
IC50 ([3]; read-out: IC50 for inhibition of [14C]serine incorporation into [14C]sphingosine, rat hepatocytes, 2 h incubation (FIG. 3B)): ~100 nM and 100 nM
tumor promotion [4]: promotion of liver tumors
inhibition of serine palmitoyltransferase in disrupted cells [5]: no inhibition
serine palmitoyltransferase activity in disrupted cells [5]: 7.7±0.2 pmol/min per mg of cellular protein
